Results: BindingDB's records for patent US20250051323 (Richter Gedeon, 2025)

Biological target: T1, GABA-A receptor; alpha-5/beta-3/gamma-2 (Homo sapiens, UniProt P18507+P28472+P31644)
T1 sequence (P31644 whole entry): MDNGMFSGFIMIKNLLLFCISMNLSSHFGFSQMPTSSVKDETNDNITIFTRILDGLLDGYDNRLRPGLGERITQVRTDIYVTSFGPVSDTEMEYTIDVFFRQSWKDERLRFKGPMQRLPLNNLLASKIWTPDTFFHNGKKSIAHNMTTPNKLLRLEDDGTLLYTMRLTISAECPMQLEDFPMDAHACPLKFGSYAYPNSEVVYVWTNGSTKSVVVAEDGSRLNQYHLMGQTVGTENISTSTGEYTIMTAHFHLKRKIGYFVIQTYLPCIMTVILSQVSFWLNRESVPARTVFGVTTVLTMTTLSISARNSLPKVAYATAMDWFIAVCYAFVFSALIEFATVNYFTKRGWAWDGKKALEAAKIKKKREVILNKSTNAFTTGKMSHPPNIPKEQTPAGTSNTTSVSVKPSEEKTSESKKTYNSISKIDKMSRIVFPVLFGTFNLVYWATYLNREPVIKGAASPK
T1 sequence (P18507 whole entry): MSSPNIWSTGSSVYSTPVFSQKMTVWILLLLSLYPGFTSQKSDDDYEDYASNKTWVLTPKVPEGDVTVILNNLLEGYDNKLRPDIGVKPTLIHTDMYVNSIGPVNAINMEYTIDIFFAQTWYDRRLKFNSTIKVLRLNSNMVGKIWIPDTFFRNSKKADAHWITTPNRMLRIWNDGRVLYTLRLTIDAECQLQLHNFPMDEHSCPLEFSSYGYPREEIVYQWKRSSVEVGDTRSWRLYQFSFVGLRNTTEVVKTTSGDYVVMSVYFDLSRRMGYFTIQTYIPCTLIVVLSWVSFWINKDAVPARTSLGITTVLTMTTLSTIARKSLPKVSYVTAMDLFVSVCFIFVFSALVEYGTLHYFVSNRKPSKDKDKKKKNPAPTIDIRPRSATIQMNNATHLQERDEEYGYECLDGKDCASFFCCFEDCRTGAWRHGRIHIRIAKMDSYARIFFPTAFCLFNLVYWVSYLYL
T1 sequence (P28472 whole entry): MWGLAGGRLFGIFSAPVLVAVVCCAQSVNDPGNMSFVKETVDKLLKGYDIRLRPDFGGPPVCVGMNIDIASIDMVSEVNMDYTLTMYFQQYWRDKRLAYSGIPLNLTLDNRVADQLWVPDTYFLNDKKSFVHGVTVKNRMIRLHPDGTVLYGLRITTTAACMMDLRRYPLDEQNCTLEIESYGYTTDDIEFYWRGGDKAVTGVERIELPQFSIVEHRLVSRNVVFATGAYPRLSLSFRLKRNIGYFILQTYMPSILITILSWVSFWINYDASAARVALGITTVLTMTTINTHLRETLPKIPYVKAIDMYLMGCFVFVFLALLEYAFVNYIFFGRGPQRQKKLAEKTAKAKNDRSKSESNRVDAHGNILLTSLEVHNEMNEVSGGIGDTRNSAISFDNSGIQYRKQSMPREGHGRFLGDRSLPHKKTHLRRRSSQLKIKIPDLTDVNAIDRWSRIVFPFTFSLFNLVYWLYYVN
Assay: Binding Assay
Protocol: Receptor binding assays were performed in 96-well format in deep-well plates. For each 96-well plate one ampule of membrane homogenate was thawed and diluted in binding buffer (50 mM Tris pH=7.4, 100 mM KCl) and 200 μL was dispensed into each well. Radioligand [3H]Ro151788 (Perkin Elmer: NET757250UC) was prepared in binding buffer and added to each well in 50 μL volume to give final concentration of 0.5 nM. Test compounds in suitable concentration(s) were added in additional 50 μL. The final assay volume was 300 μL. Incubation was carried out for 60 minutes at 4° C. For non-specific binding 10 μM unlabeled diazepam was used. After incubation samples were filtered over UniFilter GF/B™ using Filtermate Harvester (Perkin Elmer) and washed with 5×1 mL binding buffer. The plate was dried at 40° C. for an hour and 40 μL Microscint (Perkin Elmer) scintillation cocktail was added to each well. The plate was read in Microbeta (Perkin Elmer).

Row | Ki | Compound
1 | 28 nM | Cc1ccc(-n2nnc(C)c2COc2cc3c(cn2)CN(C2(C(C)C)COC2)CC3)cn1 [US20250051323, Example 42]
2 | 19 nM | CCC1(N2CCc3cc(OCc4c(C)nnn4-c4ccc(C)nc4)ncc3C2)COC1 [US20250051323, Example 43]
3 | 28.5 nM | COc1ccc(-n2nnc(C)c2COc2cc3c(cn2)CN(C2CCOCC2)CC3)cn1 [US20250051323, Example 40]
4 | 53.5 nM | Cc1nnn(-c2ccc(C(F)(F)F)nc2)c1COc1cc2c(cn1)CN(CC1CCS(=O)(=O)C1)CC2 (stereo not drawn) [US20250051323, Example 36]
5 | 37.9 nM | Cc1nnn(-c2ccc(C(F)(F)F)nc2)c1COc1cc2c(cn1)CN(c1cccnc1)CC2 [US20250051323, Example 37]
6 | 61.5 nM | Cc1ccc(-n2nnc(C)c2COc2cc3c(cn2)CN(CC(C)C)CC3)cn1 [US20250051323, Example 41]
7 | 4.5 nM | Cc1ccc(-c2noc(C)c2COc2cc3c(cn2)CN(C2CCC2)CC3)cn1 [US20250051323, Example 4]
8 | 12.7 nM | Cc1onc(-c2ccc(C(F)(F)F)nc2)c1COc1cc2c(nn1)CN(C1CCOC1)CC2 (stereo not drawn) [US20250051323, Example 18]
